System: primary normal human melanocytes
Experiment: melanogenesis assay (C14-tyrosine incorporation)
Type: cell-based
Conditions: incubation for 3 days, average, n=3
Procedure: By way of example, the test for the compound 6-methyl-8-(2,6,6-trimethylcyclohex-1-en-1-yl)octa-3,5-dien-2-one is given.
A melanogenesis assay was carried out after incubation for 3 days of primary normal human melanocytes with test substance compared to control. The numbers given in the table indicate the melanogenesis rates based on the untreated control (=100%) (measured as C14-tyrosine incorporation).

CC(=O)/C=C/C=C(\C)CCC1=C(C)CCCC1(C)C [(3E,5E)-6-methyl-8-(2,6,6-trimethylcyclohex-1-en-1-yl)octa-3,5-dien-2-one]
melanogenesis rate based on the untreated control (=100%), measured as C14-tyrosine incorporation (0.1 μg/ml test substance): 127%
melanogenesis rate based on the untreated control (=100%), measured as C14-tyrosine incorporation (1 μg/ml test substance): 157%
